Assay results published in patent US11641858B2, “Agricultural chemicals” (Redag Crop Protection Ltd, priority 2016, dated 2023).

Experiments:
Phytophthora cinnamomi = test: Amended agar assay (potato dextrose agar), reduction in colony growth; type: cell-based; conditions: for EC50: descending test concentrations, 5-fold dilutions typically down to 0.032 ppm, read-out: Phytophthora cinnamomi (EC50)
Protocol: (§1) Testing was carried out on potato dextrose agar (PDA) amended with each compound at test concentrations of 20, 4 and 0.8, 0.16 and 0.032 ppm. Amended agar at each test concentration was poured into three replicate 9 cm petri dishes. Each replicate dish was inoculated in the centre with a 5 mm agar plug taken from the leading edge of a culture aged between 2 and 7 days old; the age of the culture was dependant on the growth rate of the pathogen being tested. The test pathogens were Pythium ultimum and Phytophthora cinnamomi. Plates were incubated at 18° C. and the diameter of each colony measured before growth on the fastest growing plate reached the plate edge. This varied between 2 and 7 days depending on the growth rate of test pathogens. The % reduction in colony growth compared to the control was calculated for each test concentration and pathogen combination.
(§2) The results are shown in Table 1 in which * represents an average control of up to 50% at said dosage; ** represents an average control of 50% or greater but less than 80% at said dosage; and *** represents an average control of 80% or greater at said dosage.
(§3) A primary screen was also conducted for a number of other compounds of the invention. The screen was conducted at 20 ppm and the results are provided in Table 2, in which D represents no control detected at this concentration; C represents up to 50% control; B from 50 to 99% control; and A represents a control of greater than 99%.
(§4) Alternatively, or in addition, the same assay was conducted at descending test concentrations with 5-fold dilutions typically down to 0.032 ppm, and an EC50 (the concentration at which 50% control would be achieved) was determined. The results are provided in Table 1 in which G represents an EC50 above 20 ppm, F represents an EC50 of 2-20 ppm and E represents and EC50 less than 2 ppm.

Pythium ultimum = test: as above; type: cell-based; conditions: for EC50 / inhibition of growth at 20 ppm: Globisporangium ultimum; for EC50: descending test concentrations, 5-fold dilutions typically down to 0.032 ppm, read-out: Pythium ultimum (EC50); for inhibition of growth at 20 ppm: read-out: % control at 20 ppm
Protocol: as §1, §2, §3, §4

[1] = Pythium ultimum, primary screen at 20 ppm

EC50 (Phytophthora cinnamomi) [µg/mL] | EC50 (Pythium ultimum) [µg/mL] | SMILES | inhibition of growth at 20 ppm (Pythium ultimum; [1]) [%] | control over the fungal pathogens tested (in words) (Phytophthora cinnamomi; primary screen at 20 ppm) | inhibition of growth at 20 ppm (Phytophthora cinnamomi; primary screen at 20 ppm, read-out: % control at 20 ppm) [%] | control over the fungal pathogens tested (in words) (Pythium ultimum; [1])
2 to 20 | 2 to 20 | O=C(Nc1cccc(COc2nc3ccccc3n2-c2ncccc2Cl)n1)C(F)(F)Oc1ccccc1 [Example 63] |  |  |  | 
< 2 | < 2 | Cn1nnnc1-n1c(OCc2cccc(NC(=O)Cc3ccccc3)n2)nc2ccccc21 [Example 29] |  |  |  | 
< 2 |  | O=C(Nc1cccc(COc2nc3ccccc3n2-c2ncncc2Cl)n1)C(F)(F)Oc1ccccc1 [Example 64] | > 99 |  |  | 
< 2 | < 2 | Cn1nnnc1-n1c(OCc2cccc(NC(=O)Cc3ccccn3)n2)nc2ccccc21 [Example 38] |  |  |  | 
< 2 | < 2 | Cn1ccnc1-n1c(OCc2cccc(NC(=O)C(F)(F)Oc3ccccc3)n2)nc2ccccc21 [Example 54] |  |  |  | 
< 2 | < 2 | Cn1nnnc1-n1c(OCc2cccc(NC(=O)c3ccccn3)n2)nc2ccccc21 [Example 37, N-(6-(((1-(1-methyl-1H-tetrazol-5-yl)-1H-benzo[d]imidazol-2-yl)oxy)methyl)pyridin-2-yl)picolinamide] |  |  |  | 
< 2 | < 2 | Cn1nnnc1-n1c(OCc2cccc(NC(=O)c3ccccc3)n2)nc2ccccc21 [Example 27] |  |  |  | 
< 2 | < 2 | COc1ccc(C(=O)Nc2cccc(COc3nc4ccccc4n3-c3nnnn3C)n2)cc1 [Example 34] |  |  |  | 
< 2 | < 2 | Cn1nnnc1-n1c(OCc2cccc(NC(=O)C(F)(F)Oc3ccccc3)n2)nc2ccc(F)cc21 [Example 6] | > 99 | excellent control | > 99 | excellent control

The next lines start with the compound.

SMILES | EC50 (Phytophthora cinnamomi) [µg/mL] | EC50 (Pythium ultimum) [µg/mL] | inhibition of growth at 20 ppm (Pythium ultimum; [1]) [%] | control over the fungal pathogens tested (in words) (Phytophthora cinnamomi; primary screen at 20 ppm) | inhibition of growth at 20 ppm (Phytophthora cinnamomi; primary screen at 20 ppm, read-out: % control at 20 ppm) [%] | control over the fungal pathogens tested (in words) (Pythium ultimum; [1])
Cn1nnnc1-n1c(OCc2cccc(NC(=O)CCC3CCCCC3)n2)nc2ccccc21 [Example 47] | < 2 | < 2 |  |  |  | 
CCCCCOC(=O)Nc1cccc(COc2nc3ccccc3n2-c2nnnn2C)n1 [Example 16] | < 2 | < 2 |  |  |  | 
CC(C)OC(=O)Nc1cccc(COc2nc3ccccc3n2-c2nnnn2C)n1 [Example 17] | < 2 | < 2 |  |  |  | 
CCCC(=O)Nc1cccc(COc2nc3ccccc3n2-c2nnnn2C)n1 [Example 30] | < 2 | < 2 |  |  |  | 
COCCC(=O)Nc1cccc(COc2nc3ccccc3n2-c2nnnn2C)n1 [Example 42] | < 2 | < 2 |  |  |  | 
Cn1nnnc1-n1c(OCc2cccc(NC(=O)C[S+](C)[O-])n2)nc2ccccc21 (stereo not drawn) [Example 52, N-(6-(((1-(1-Methyl-1H-tetrazol-5-yl)-1H-benzo[d]imidazol-2-yl)oxy)methyl)pyridin-2-yl)-2-(methylsulfinyl)acetamide] | 2 to 20 | > 20 |  |  |  | 
C=CCOC(=O)Nc1cccc(COc2nc3ccccc3n2-c2nnnn2C)n1 [Example 19] | < 2 | < 2 |  |  |  | 
CCC(CC)C(=O)Nc1cccc(COc2nc3ccccc3n2-c2nnnn2C)n1 [Example 36] | < 2 | < 2 |  |  |  | 
Cn1nnnc1-n1c(OCc2cccc(NC(=O)CC(C)(C)C)n2)nc2ccccc21 [Example 44] | < 2 | < 2 |  |  |  | 
Cn1ccnc1-n1c(OCc2cccc(NC(=O)OC(C)(C)C)n2)nc2ccccc21 [Example 57] | < 2 | < 2 |  |  |  | 
